No end group written: not given here.
Biological target: T1, human GPR54 (Homo sapiens, UniProt Q969F8)
T1 construct: host or cells: Chem-1 host cells, with the promiscuous G protein Galpha15 (Gal 5 [sic])
Test: FLIPR calcium flux agonist assay on GPR54-expressing Chem-1 cell line
Type: cell-based
Conditions: time of release n/a (no release incubation); for EC50: read-out: EC50 (nM) of agonist activation at GPR54
Protocol: A FLIPR assay was conducted to screen Kisspeptin and PEG-Kisspeptin peptides for dose-dependent agonist activities on the GP[…]-Protein coupled receptor. […] All compounds were diluted in their storage solvents to produce 250× (of the top dose listed below) master stock solutions. Compounds were then transferred from their master stock solutions into a daughter plate that was used in the assay. Each 250× solution was diluted into assay buffer (1×HBSS with 20 mM HEPES and 2.5 mM Probenecid) to obtain the final top test concentration. Calcium flux agonist assay: Chemicon's cloned human GPR54-expressing cell line is made in the Chem-1 host, which supports high levels of recombinant GPR54 expression on the cell surface and contains high levels of the promiscuous G protein Gal 5 to couple the receptor to the calcium signaling pathway. […] Reference agonist was handled as mentioned above, serving as assay control. Assay was read for 180 seconds using the FLIPR^TETRA. All plates were subjected to appropriate baseline corrections. Once baseline corrections were processed, maximum fluorescence values were exported and data manipulated to calculate percentage activation and Z'. Dose response curves were generated using GraphPad Prism. The curves were fit by utilizing sigmoidal dose response (variable slope) fitting with the bottom parameter fixed at 0 (FIGS.

T1 sequence (Q969F8 whole entry): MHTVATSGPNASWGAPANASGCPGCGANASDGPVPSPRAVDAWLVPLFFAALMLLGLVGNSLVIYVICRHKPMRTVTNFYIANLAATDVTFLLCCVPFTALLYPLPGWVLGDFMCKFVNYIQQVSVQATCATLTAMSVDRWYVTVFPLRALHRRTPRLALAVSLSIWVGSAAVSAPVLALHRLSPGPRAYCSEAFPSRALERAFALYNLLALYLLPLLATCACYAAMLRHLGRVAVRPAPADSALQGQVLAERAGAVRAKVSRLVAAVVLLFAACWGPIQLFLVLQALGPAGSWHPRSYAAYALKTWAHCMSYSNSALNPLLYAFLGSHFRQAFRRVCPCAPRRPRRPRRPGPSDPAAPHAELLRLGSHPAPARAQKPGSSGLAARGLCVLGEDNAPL

Row | Molecule | Fold change compared to metastin | EC50 | EC50 (nM) of agonist activation at GPR54
1 | CC(C)C[C@H](NC(=O)CNC(=O)[C@H](Cc1ccccc1)NC(=O)[C@H](CO)NC(=O)[C@H](CC(N)=O)NC(=O)[C@H](Cc1c[nH]c2ccccc12)NC(=O)[C@H](CC(N)=O)NC(=O)[C@H](Cc1ccc(O)cc1)NC(=O)[C@H](CC(N)=O)NC(=O)[C@@H]1CCCN1C(=O)[C@@H](N)CC(C)C)C(=O)N[C@@H](CCCNC(=N)N)C(=O)N[C@@H](Cc1ccccc1)C(N)=O [KP13] | 1 fold | 11 nM | –
2 | Ald40K-KP54: Kisspeptin-54 mono-PEGylated with mPEG2-ButyrAldehyde-40K by reductive amination (stable conjugate) (GTSLSPPPESSGSPQQPGLSAPHSRQIPAPQGAVLVQREKDLPNYNWNSFGLRF-NH2; also: mono-PEGylated with mPEG2-butyraldehyde 40K by reductive amination, site not given here; UniProt Q15726 68-121, looked up) | – | – | No activity
3 | GTSLSPPPESSGSPQQPGLSAPHSRQIPAPQGAVLVQREKDLPNYNWNSFGLRF-NH2 [KP54] | 16 fold | 190 nM | –
4 | CC(C)C[C@H](NC(=O)CNC(=O)[C@H](Cc1ccccc1)NC(=O)[C@H](CO)NC(=O)[C@H](CC(N)=O)NC(=O)[C@H](Cc1c[nH]c2ccccc12)NC(=O)[C@H](CC(N)=O)NC(=O)[C@@H](N)Cc1ccc(O)cc1)C(=O)N[C@@H](CCCNC(=N)N)C(=O)N[C@@H](Cc1ccccc1)C(N)=O [KP10] | 1 fold | 10 nM | –
5 | Ald30K-KP13: Kisspeptin-13 mono-PEGylated with linear mPEG-ButyrALD-30K by reductive amination (stable conjugate) (LPNYNWNSFGLRF; also: mono-PEGylated with mPEG-butyraldehyde 30K by reductive amination, site not given here; UniProt Q15726 109-121, looked up) | – | – | No activity
